What was measured:
Assay type in all cases: cell-based
[1] = system: Aspergillus niger; assay: Screening for anti-fungal activity in mineral-salts glucose medium, visual growth / no growth; design: key: −: no growth; +: slight growth; ++: moderate growth; +++: heavy growth; ++++: very heavy growth; settings: 25° C.
Procedure: The pH of the medium was adjusted to 6 with 1N NaOH. The medium was distributed in 50 ml amounts into 250 ml flasks and autoclaved at 121° C. for 20 minutes. The test fungus, Aspergillus niger, was grown on potato dextrose agar for 7-10 days. A spore/hyphal suspension of the fungus was prepared by washing down the spores/hyphae from the slant with sterile saline into a bottle containing 30 ml sterile saline and shaken. The chemicals were added to the sterile mineral-salts medium in the desired concentrations, and each flask was inoculated with a suspension of the fungal suspension to give a final fungal count of approximately 1×10^6 cfu/ml. The inoculated samples were incubated at 25° C. and inspected visually for growth or no growth at 7 and 14 days.

[2] = system: Aspergillus niger; assay: Wet blue pieces dipped in active substance, exposed to airborne spores in petri-dish growth chambers; design: key to GROWTH Wk. 1 / GROWTH Wk. 2 / GROWTH Wk. 3 / GROWTH Wk. 4 / GROWTH Wk. 5 / GROWTH Wk. 6 / GROWTH Wk. 7: 0: no growth on surface; +: less than half of surface covered with mold; ++: about half of surface covered with mold; +++: about ¾ of surface covered with mold; ++++: the whole surface covered with mold; settings: for performance against Aspergillus niger on wet blue compared with the controls: wet blue dipped in 0.5% or 0.25% (by wt) mixtures
Procedure: Sodium omadine was included among the substances tested, as a positive control. The test organism, Aspergillus niger, was grown on potato dextrose agar for 5-days in petri-dishes. The wet blue pieces were placed on top of pieces of bent glass rod, thereby preventing direct contact with the “lawn” of Aspergillus niger. Thus, exposure of the wet blue to Aspergillus niger was limited to airborne spores, simulating one of the most common modes of exposure experienced in practice. For each active substance and concentration studied, wet blue pieces were suspended both grain side up and flesh side up. A bottom half of a petri-dish was used as a cover to provide a growth chamber for each sample. These growth chambers were incubated at 25° C. and evaluated weekly to determine the degree of fungal infestation on the wet blue surfaces.

[3] = system: Penicillium sp.; assay: Wet blue pieces dipped in active substance, mold exposure in petri-dishes, industrial isolate; design: key to GROWTH Wk. 1 / GROWTH Wk. 2 / GROWTH Wk. 3 / GROWTH Wk. 4 / GROWTH Wk. 5 / GROWTH Wk. 7 / GROWTH Wk. 8 / GROWTH Wk. 9: 0: no growth on surface; +: less than half of surface covered with mold; ++: about half of surface covered with mold; +++: about ¾ of surface covered with mold; ++++: the whole surface covered with mold
Procedure: One inch square pieces of wet blue that had not been previously treated with fungicide were dipped in either 0.5% or 0.25% (by wt) mixtures of each active substance in water. Sodium omadine was included among the substances tested, as a positive control. The test organism, Aspergillus niger, was grown on potato dextrose agar for 5-days in petri-dishes. The wet blue pieces were placed on top of pieces of bent glass rod, thereby preventing direct contact with the “lawn” of Aspergillus niger. Thus, exposure of the wet blue to Aspergillus niger was limited to airborne spores, simulating one of the most common modes of exposure experienced in practice. For each active substance and concentration studied, wet blue pieces were suspended both grain side up and flesh side up. A bottom half of a petri-dish was used as a cover to provide a growth chamber for each sample. These growth chambers were incubated at 25° C. and evaluated weekly to determine the degree of fungal infestation on the wet blue surfaces.
Some of the minimum risk fungicides identified above were further tested against an industrial isolate of Penicillium sp, as shown in Table 3. This particular “wild strain” of Penicillium was isolated from commercial wet blue that was seriously contaminated with mold. […] Once again, one inch square pieces of wet blue were dipped in mixtures of active substances in water—this time at 1% and 0.5% concentrations. The mold exposure was carried out in petri-dishes as in EXAMPLE 2, but with Penicillium sp. as the test organism.

SMILES: C/C=C/C=C/C(=O)[O-].[K+] [Potassium sorbate]
- GROWTH 7-days ([1]; 0.5% by wt.): −
- GROWTH 14-days ([1]; 0.5% by wt.): +++
- GROWTH 7-days ([1]; 1% by wt.): −
- GROWTH 14-days ([1]; 1% by wt.): −

SMILES: O=C(O)CC(O)(CC(=O)O)C(=O)O [Citric acid]
- GROWTH 7-days ([1]; 0.5% by wt.): −
- GROWTH 14-days ([1]; 0.5% by wt.): −
- GROWTH 7-days ([1]; 1% by wt.): −
- GROWTH 14-days ([1]; 1% by wt.): −

SMILES: CCC(=O)OCCc1ccccc1 [2-Phenylethyl propionate]
- GROWTH 7-days ([1]; 1% by wt.): −
- GROWTH 14-days ([1]; 1% by wt.): −
- performance against Aspergillus niger on wet blue compared with the controls ([2]; petri-dishes): no better than the controls

SMILES: O=C([O-])c1ccccc1O.[Na+] [Sodium salicylate, reference compound]
- GROWTH 7-days ([1]; 0.5% by wt.): ++++
- GROWTH 7-days ([1]; 1% by wt.): ++++

SMILES: O=C([O-])c1ccccc1.[Na+] [Sodium benzoate]
- GROWTH 7-days ([1]; 0.5% by wt.): ++
- GROWTH 7-days ([1]; 1% by wt.): +

SMILES: CCCCCCCCCCCCOS(=O)(=O)[O-].[Na+] [Sodium lauryl sulfate]
- GROWTH 7-days ([1]; 0.5% by wt.): −
- GROWTH 14-days ([1]; 0.5% by wt.): −
- GROWTH 7-days ([1]; 1% by wt.): −
- GROWTH 14-days ([1]; 1% by wt.): −
- GROWTH Wk. 1 ([2]; 0.25% (flesh)): 0
- GROWTH Wk. 2 ([2]; 0.25% (flesh)): 0
- GROWTH Wk. 3 ([2]; 0.25% (flesh)): 0
- GROWTH Wk. 4 ([2]; 0.25% (flesh)): 0
- GROWTH Wk. 5 ([2]; 0.25% (flesh)): 0
- GROWTH Wk. 6 ([2]; 0.25% (flesh)): 0
- GROWTH Wk. 7 ([2]; 0.25% (flesh)): ++
- GROWTH Wk. 1 ([2]; 0.25% (grain)): 0
- GROWTH Wk. 2 ([2]; 0.25% (grain)): 0
- GROWTH Wk. 3 ([2]; 0.25% (grain)): 0
- GROWTH Wk. 4 ([2]; 0.25% (grain)): 0
- GROWTH Wk. 5 ([2]; 0.25% (grain)): 0
- GROWTH Wk. 6 ([2]; 0.25% (grain)): 0
- GROWTH Wk. 7 ([2]; 0.25% (grain)): ++
- GROWTH Wk. 1 ([2]; 0.5% (flesh)): 0
- GROWTH Wk. 2 ([2]; 0.5% (flesh)): 0
- GROWTH Wk. 3 ([2]; 0.5% (flesh)): 0
- GROWTH Wk. 4 ([2]; 0.5% (flesh)): 0
- GROWTH Wk. 5 ([2]; 0.5% (flesh)): 0
- GROWTH Wk. 6 ([2]; 0.5% (flesh)): 0
- GROWTH Wk. 7 ([2]; 0.5% (flesh)): 0
- GROWTH Wk. 1 ([2]; 0.5% (grain)): 0
- GROWTH Wk. 2 ([2]; 0.5% (grain)): 0
- GROWTH Wk. 3 ([2]; 0.5% (grain)): 0
- GROWTH Wk. 4 ([2]; 0.5% (grain)): 0
- GROWTH Wk. 5 ([2]; 0.5% (grain)): 0
- GROWTH Wk. 6 ([2]; 0.5% (grain)): 0
- GROWTH Wk. 7 ([2]; 0.5% (grain)): +
- duration of protection of wet blue ([2]; at the concentration tested, petri-dishes): six to seven
- GROWTH Wk. 1 ([3]; 0.5% (flesh)): 0
- GROWTH Wk. 2 ([3]; 0.5% (flesh)): 0
- GROWTH Wk. 3 ([3]; 0.5% (flesh)): 0
- GROWTH Wk. 4 ([3]; 0.5% (flesh)): +
- GROWTH Wk. 5 ([3]; 0.5% (flesh)): ++
- GROWTH Wk. 7 ([3]; 0.5% (flesh)): ++++
- GROWTH Wk. 8 ([3]; 0.5% (flesh)): ++++
- GROWTH Wk. 9 ([3]; 0.5% (flesh)): ++++
- GROWTH Wk. 1 ([3]; 0.5% (grain)): 0
- GROWTH Wk. 2 ([3]; 0.5% (grain)): 0
- GROWTH Wk. 3 ([3]; 0.5% (grain)): +
- GROWTH Wk. 4 ([3]; 0.5% (grain)): ++++
- GROWTH Wk. 5 ([3]; 0.5% (grain)): ++++
- GROWTH Wk. 7 ([3]; 0.5% (grain)): ++++
- GROWTH Wk. 8 ([3]; 0.5% (grain)): ++++
- GROWTH Wk. 9 ([3]; 0.5% (grain)): ++++
- GROWTH Wk. 1 ([3]; 1% (flesh)): 0
- GROWTH Wk. 2 ([3]; 1% (flesh)): 0
- GROWTH Wk. 3 ([3]; 1% (flesh)): 0
- GROWTH Wk. 4 ([3]; 1% (flesh)): 0
- GROWTH Wk. 5 ([3]; 1% (flesh)): +
- GROWTH Wk. 7 ([3]; 1% (flesh)): ++++
- GROWTH Wk. 8 ([3]; 1% (flesh)): ++++
- GROWTH Wk. 9 ([3]; 1% (flesh)): ++++
- GROWTH Wk. 1 ([3]; 1% (grain)): 0
- GROWTH Wk. 2 ([3]; 1% (grain)): 0
- GROWTH Wk. 3 ([3]; 1% (grain)): 0
- GROWTH Wk. 4 ([3]; 1% (grain)): 0
- GROWTH Wk. 5 ([3]; 1% (grain)): 0
- GROWTH Wk. 7 ([3]; 1% (grain)): 0
- GROWTH Wk. 8 ([3]; 1% (grain)): 0
- GROWTH Wk. 9 ([3]; 1% (grain)): 0
- resistance of treated wet blue compared with unprotected controls ([3]; wet blue dipped at 1% and 0.5%, Prosan 18 as positive control): substantially improved over the unprotected controls

SMILES: CC(=O)c1c([O-])cc(C)oc1=O.[Na+] [Sodium dehydroacetate, reference compound]
- GROWTH 7-days ([1]; 0.5% by wt.): −
- GROWTH 14-days ([1]; 0.5% by wt.): −
- GROWTH 7-days ([1]; 1% by wt.): −
- GROWTH 14-days ([1]; 1% by wt.): −

SMILES: C=CCc1ccc(O)c(OC)c1 [Eugenol]
- GROWTH 7-days ([1]; 0.5% by wt.): −
- GROWTH 14-days ([1]; 0.5% by wt.): −
- GROWTH 7-days ([1]; 1% by wt.): −
- GROWTH 14-days ([1]; 1% by wt.): −
- performance against Aspergillus niger on wet blue compared with the controls ([2]; petri-dishes): no better than the controls

SMILES: CC(C)=CCC/C(C)=C/CO [Geraniol]
- GROWTH 7-days ([1]; 0.5% by wt.): −
- GROWTH 14-days ([1]; 0.5% by wt.): −
- GROWTH 7-days ([1]; 1% by wt.): −
- GROWTH 14-days ([1]; 1% by wt.): −
- performance against Aspergillus niger on wet blue compared with the controls ([2]; petri-dishes): no better than the controls

SMILES: [Na+].[O-][n+]1ccccc1[S-] [Sodium omadine, reference compound]
- GROWTH Wk. 1 ([2]; 0.05% (flesh)): 0
- GROWTH Wk. 2 ([2]; 0.05% (flesh)): 0
- GROWTH Wk. 3 ([2]; 0.05% (flesh)): 0
- GROWTH Wk. 4 ([2]; 0.05% (flesh)): 0
- GROWTH Wk. 5 ([2]; 0.05% (flesh)): 0
- GROWTH Wk. 6 ([2]; 0.05% (flesh)): 0
- GROWTH Wk. 7 ([2]; 0.05% (flesh)): 0
- GROWTH Wk. 1 ([2]; 0.05% (grain)): 0
- GROWTH Wk. 2 ([2]; 0.05% (grain)): 0
- GROWTH Wk. 3 ([2]; 0.05% (grain)): 0
- GROWTH Wk. 4 ([2]; 0.05% (grain)): 0
- GROWTH Wk. 5 ([2]; 0.05% (grain)): 0
- GROWTH Wk. 6 ([2]; 0.05% (grain)): 0
- GROWTH Wk. 7 ([2]; 0.05% (grain)): 0
